Test results published in patent US12606552B2, “Bifunctional compound, preparation method therefor, and use thereof” (SUZHOU KINTOR PHARMACEUTICALS, INC., priority 2020, dated 2026).

What was measured:
[1] = test system: androgenetic alopecia model in C57BL/6J mice; assay: Hair regeneration effects on androgenic alopecia C57 mouse model (DHT-induced); type: in vivo, C57BL/6N mice; settings: 5% skin smear BID + DHT 30 mpk, AVER n = 6, score 0-5
Description: Activity Assay Example 8: Hair Regeneration Effects of Compounds on Androgenic Alopecia C57 Mouse Model
The purpose of this study was to compare the effect of the compounds prepared by the present invention as AR protein degraders on hair regrowth in an androgenetic alopecia model in C57BL/6J mice by transdermal application route of administration, and to provide data to support subsequent clinical trials.
2. Experimental Principle
Name of test compound I: dihydrotestosterone DHT; name of test compound II: compound A46 of the present invention; name of test compound III: minoxidil.
4. Experimental animals: strain: C57BL/6N mice; age: 6-7 weeks; gender: male; number of animals: 70 (10 for later use); rearing environment: specific pathogen-free (SPF).
70 mice were deeply anesthetized, and the hair on the back of the mice was removed with an animal shaver, then the depilatory cream (Veet https://item.jd.com/6291245.html) was smeared evenly on the surface of the mice skin, and left 7-10 minutes. Then the hair was gently scraped off with a hair removal scraper against the direction of the hair, and finally the residual hair removal cream on the skin surface was fully washed with water to avoid burning the mice skin.
This experiment was divided into 6 groups, and the DHT administration started on the day of hair removal, A46 is administered on day 2 after hair removal and is counted as day 1 (the day of hair removal is counted as day 0).
5.3 Test Compound Preparation Method
5.4 Observation and Measurement Indicators • 1) Body weight/g: From the first day of administration, body weight was weighed and recorded twice a week. • 2) Hair regeneration (anagen) score (0 points: no darkening of skin color in all areas; 1 point: darkening of gray skin color areas; 2 points: visible short hair; 3 points: thin hair; 4 points: thick hair; 5 points: full hair growth).
All mice were photographed on day 1 after hair removal, and then photographed and scored daily from day 4 until the end of the experiment. • 3) At the end of the experiment, skin and blood collection operations were performed as needed. 5.5 Criteria for Drug Withdrawal and Experiment Termination
Data are presented as average±standard error (AVE±SEM). One-way multi-level analysis of variance was used for statistics. The comparison between each drug group and the model group was performed by Stundent's t-test or rank sum test, and the p value was calculated. p<0.05 means there is a significant difference between the two groups, p<0.01 means there is a extremely significant difference between the two groups.

[2] = Pharmacokinetic studies of compounds in mice; type: in vivo; settings: male mice, intragastric administration 10 mg/kg, plasma
Method: Activity Assay Example 3: Pharmacokinetic Studies of Compounds in Mice
In this test, 3 male mice were selected and divided into 1 group, 3 mice/group. All animals were fasted overnight before administration.
The intragastric administration dose was 10 mg/kg, and the administration volume was 10 mL/kg.
2.2 Preparation of Drug Solution
According to the animal body weight combined with the administration dose, the amount of the required drug solution was calculated. An appropriate amount of the test substance was weighed, added with 5% of the final volume of ethanol for dissolution, then added with 5% of the final volume of SolutolHS15, and finally added with PBS to the final volume, and mixed by vortex and fully dissolved to obtain a solution for intragastric administration (1 mg/mL). All solutions were prepared for immediate use.
2.3 Method of Administration
Before administration, the drug solution was placed on a magnetic stirrer in the animal laboratory and stirred for at least 10 min. During the administration process, vortex was continued to ensure uniformity of the drug solution. The theoretical volume of gavage administration was 10 mL/kg, which was administered with a syringe equipped with a gavage needle.
Before administration, the animals were weighed and the body weight of the animals involved in the experiment was recorded, and the administration volume of each animal was calculated according to the body weight. After administration, animals were promptly transferred back to the experimental cages to collect samples.
2.4 Observation of Animal Status
After administration, whether animals had abnormal reactions was observed immediately. If there were no abnormal reactions, animals were observed twice a day during the experiment. If abnormal reactions were found, they should be recorded in time, and the number of observations should be increased until the animals returned to normal or to the end of the experiment.
2.5 Sample Collection and Preservation
All experimental animals were fasted overnight before administration, and blood was collected at corresponding time points into blood collection tubes containing heparin sodium anticoagulant. After the whole blood was collected, the blood collection tube was gently shaken and placed on ice immediately, and then centrifuged (4° C., 4000 rpm, 10 min) to collect supernatant plasma samples, which were stored in a refrigerator at −80° C. before analysis.
2.6 Plasma Sample Processing and Analysis
The collected plasma samples were handed over to the Pharmacokinetic department for sample extraction, and the test substances in the plasma were extracted by protein precipitation method using organic reagents containing internal standards (acetonitrile:plasma=4:1, v/v). The extracted processed samples were submitted for quantitative concentration analysis by LC-MS/MS. According to the plasma concentration of each animal obtained by the analysis, software Kinetica (version 5.0) was used to calculate the main pharmacokinetic parameter eAUC30-120 according to the non-compartment model to evaluate the exposure amount; the test results are shown in Table 2: […]

AR = target: T1, AR (Homo sapiens, UniProt P10275, T878A); assay: Effects of compounds on AR expression in LNCaP cells (ELISA, DC50); type: cell-based; design: Measurement of the Effects of Drugs on the Expression of AR in Cells by ELISA Method; endogenous in cells; host or cells: LNCaP; settings: 24 hours of drug treatment, AR by ELISA
T1 sequence (P10275 1-920 T878A): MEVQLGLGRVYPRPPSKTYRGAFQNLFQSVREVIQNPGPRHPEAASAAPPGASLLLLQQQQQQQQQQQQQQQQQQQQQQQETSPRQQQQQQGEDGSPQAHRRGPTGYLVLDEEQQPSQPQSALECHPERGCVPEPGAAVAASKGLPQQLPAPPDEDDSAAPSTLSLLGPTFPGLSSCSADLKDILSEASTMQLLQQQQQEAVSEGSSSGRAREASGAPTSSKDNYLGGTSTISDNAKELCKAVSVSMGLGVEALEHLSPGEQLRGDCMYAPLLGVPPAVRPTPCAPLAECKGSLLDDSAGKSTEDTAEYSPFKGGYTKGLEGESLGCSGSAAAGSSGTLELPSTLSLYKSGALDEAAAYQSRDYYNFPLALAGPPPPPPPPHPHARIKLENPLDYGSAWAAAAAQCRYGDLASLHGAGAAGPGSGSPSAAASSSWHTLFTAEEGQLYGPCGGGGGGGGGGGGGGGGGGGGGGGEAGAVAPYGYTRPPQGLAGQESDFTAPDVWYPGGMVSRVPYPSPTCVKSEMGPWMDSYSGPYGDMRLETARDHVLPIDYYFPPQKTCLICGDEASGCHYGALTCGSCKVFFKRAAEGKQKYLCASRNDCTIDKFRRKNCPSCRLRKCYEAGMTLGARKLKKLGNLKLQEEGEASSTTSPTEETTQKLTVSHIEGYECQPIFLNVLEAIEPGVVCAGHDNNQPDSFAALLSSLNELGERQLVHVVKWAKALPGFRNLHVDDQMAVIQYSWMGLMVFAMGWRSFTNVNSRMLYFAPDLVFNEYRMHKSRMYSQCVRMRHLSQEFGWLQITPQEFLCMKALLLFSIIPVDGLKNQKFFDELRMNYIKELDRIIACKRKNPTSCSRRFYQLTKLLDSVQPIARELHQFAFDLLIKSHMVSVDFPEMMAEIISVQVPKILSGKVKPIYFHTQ
In short: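 LNCaP cells at about 15,000/well were treated for 24 h with compound at 0.0001–2 μmol/L final. AR in cell lysates was measured by ELISA (OD450). Inhibition was relative to DMSO control after blank subtraction, and DC50 was calculated from it.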

SMILES	eAUC0.5-2 h [2] [ng·h/mL]	DC50 (AR) [µM]	further results
Nc1cc(N2CCCCC2)nc(N)[n+]1[O-] [minoxidil, reference compound]	–	–	Hair regeneration score ([1]; 0 day): 0.00; Hair regeneration score ([1]; 3 days): 0.00; Hair regeneration score ([1]; 5 days): 0.00; Hair regeneration score ([1]; 7 days): 0.00; Hair regeneration score ([1]; 10 days): 0.33; Hair regeneration score ([1]; 12 days): 0.67; Hair regeneration score ([1]; 14 days): 1.67; Hair regeneration score ([1]; 17 days): 2.33
Cc1ncsc1-c1ccc(CNC(=O)[C@@H]2C[C@@H](O)CN2C(=O)[C@@H](NC(=O)COCCCCOc2ccc(-c3ccc(N4C(=S)N(c5ccc(C#N)c(C(F)(F)F)c5F)C(=O)C4(C)C)cn3)cc2F)C(C)(C)C)cc1 [Compound A55]	396 ± 79	0.0388	–
Cc1ncsc1-c1ccc2[nH]c([C@@H]3C[C@@H](O)CN3C(=O)[C@@H](NC(=O)COCCCCOc3ccc(-c4ncc(N5C(=S)N(c6ccc(C#N)c(C(F)(F)F)c6F)C(=O)C5(C)C)cc4F)cc3F)C(C)(C)C)nc2c1 [Compound A138]	471 ± 288	1.5	–
Cc1ncsc1-c1ccc(CNC(=O)[C@@H]2C[C@@H](O)CN2C(=O)[C@@H](NC(=O)COCCCCOc2ccc(-c3ncc(N4C(=S)N(c5ccc(C#N)c(C(F)(F)F)c5F)C(=O)C4(C)C)cc3C(F)(F)F)c(C(F)(F)F)c2)C(C)(C)C)cc1 [Compound A101]	508 ± 171	0.115	–
Cc1ncsc1-c1ccc([C@H](C)NC(=O)[C@@H]2C[C@@H](O)CN2C(=O)[C@@H](NC(=O)COCCCCOc2ccc(-c3ncc(N4C(=S)N(c5ccc(C#N)c(C(F)(F)F)c5F)C(=O)C4(C)C)cc3F)cc2F)C(C)(C)C)cc1 [Compound A110]	1098 ± 208	0.0564	–
Cc1ncsc1-c1ccc([C@H](CC(=O)NCCN2CCC(C#Cc3ccc(N4C(=S)N(c5ccc(C#N)c(C(F)(F)F)c5F)C(=O)C4(C)C)cc3)CC2)NC(=O)[C@@H]2C[C@@H](O)CN2C(=O)[C@@H](NC(=O)C2(F)CC2)C(C)(C)C)cc1 [Compound A139]	53 ± 30	0.225	–
Cc1ncsc1-c1ccc(CNC(=O)[C@@H]2C[C@@H](O)CN2C(=O)[C@@H](NC(=O)COCCCCOc2c(F)cc(-c3ncc(N4C(=S)N(c5ccc(C#N)c(C(F)(F)F)c5F)C(=O)C4(C)C)cc3C(F)(F)F)cc2F)C(C)(C)C)cc1 [Compound A79]	950 ± 114	0.129	–
Cc1ncsc1-c1ccc(CNC(=O)[C@@H]2C[C@@H](O)CN2C(=O)[C@@H](NC(=O)COCCCCOc2ccc(-c3ncc(N4C(=S)N(c5ccc(C#N)c(C(F)(F)F)c5F)C(=O)C4(C)C)cc3F)cc2)C(C)(C)C)cc1 [Compound A63]	373 ± 242	0.0379	–
Cc1ncsc1-c1ccc(CNC(=O)[C@@H]2C[C@@H](O)CN2C(=O)[C@@H](NC(=O)COCCCCCOc2ccc(-c3ccc(N4C(=S)N(c5ccc(C#N)c(C(F)(F)F)c5F)C(=O)C4(C)C)cn3)cc2)C(C)(C)C)cc1 [Compound A73]	189 ± 108	0.0493	–
CNC(=O)[C@@H]1C[C@@H](O)CN1C(=O)[C@@H](NC(=O)COCCCCOc1ccc(-c2ncc(N3C(=S)N(c4ccc(C#N)c(C(F)(F)F)c4F)C(=O)C3(C)C)cc2F)cc1F)C(C)(C)C [Compound A137]	92 ± 34	0.145	–
Cc1ncsc1-c1ccc(CNC(=O)[C@@H]2C[C@@H](O)CN2C(=O)[C@@H](NC(=O)COCCOc2ccc(-c3ncc(N4C(=S)N(c5ccc(C#N)c(C(F)(F)F)c5F)C(=O)C4(C)C)cc3F)cc2F)C(C)(C)C)cc1 [Compound A91]	3160 ± 2820	0.108	–
Cc1ncsc1-c1ccc(CNC(=O)[C@@H]2C[C@@H](O)CN2C(=O)[C@@H](NC(=O)COCCCCOc2ccc(-c3ncc(N4C(=S)N(c5ccc(C#N)c(C(F)(F)F)c5F)C(=O)C4(C)C)cc3F)cc2F)C(C)(C)C)cc1 [Compound A70]	1686 ± 938	0.0621	–
Cc1ncsc1-c1ccc(CNC(=O)[C@@H]2C[C@@H](O)CN2C(=O)[C@@H](NC(=O)COCCCCOc2ccc(-c3ncc(N4C(=S)N(c5ccc(C#N)c(C(F)(F)F)c5F)C(=O)C4(C)C)cc3F)c(F)c2)C(C)(C)C)cc1 [Compound A94]	410 ± 38	0.0584	–
Cc1ncsc1-c1ccc(CNC(=O)[C@@H]2C[C@@H](O)CN2C(=O)[C@@H](NC(=O)c2ccc(CNC(=O)CCCc3ccc(N4C(=S)N(c5ccc(C#N)c(C(F)(F)F)c5F)C(=O)C4(C)C)cn3)cc2)C(C)(C)C)cc1 [Compound A134]	29 ± 22	1.13	–
